Results reported in patent publication US20230150970A1, “AMINOPYRIMIDINE DERIVATIVES AND THEIR USE AS ARYL HYDROCARBON RECEPTOR MODULATORS” (DONG-A ST CO., LTD., priority 2020, published 2023).

The molecules below were run against T1, AhR (Homo sapiens, UniProt P35869) (assay: In Vitro Assay 1: XRE-luciferase reporter assay, antagonism in human cell line (HepG2)). Conditions: Assay 1: AhR-Luc Human Antagonism (IC50, nM), values marked *: kynurenine 50 μM, 6 hours.
T1 sequence (P35869 11-848): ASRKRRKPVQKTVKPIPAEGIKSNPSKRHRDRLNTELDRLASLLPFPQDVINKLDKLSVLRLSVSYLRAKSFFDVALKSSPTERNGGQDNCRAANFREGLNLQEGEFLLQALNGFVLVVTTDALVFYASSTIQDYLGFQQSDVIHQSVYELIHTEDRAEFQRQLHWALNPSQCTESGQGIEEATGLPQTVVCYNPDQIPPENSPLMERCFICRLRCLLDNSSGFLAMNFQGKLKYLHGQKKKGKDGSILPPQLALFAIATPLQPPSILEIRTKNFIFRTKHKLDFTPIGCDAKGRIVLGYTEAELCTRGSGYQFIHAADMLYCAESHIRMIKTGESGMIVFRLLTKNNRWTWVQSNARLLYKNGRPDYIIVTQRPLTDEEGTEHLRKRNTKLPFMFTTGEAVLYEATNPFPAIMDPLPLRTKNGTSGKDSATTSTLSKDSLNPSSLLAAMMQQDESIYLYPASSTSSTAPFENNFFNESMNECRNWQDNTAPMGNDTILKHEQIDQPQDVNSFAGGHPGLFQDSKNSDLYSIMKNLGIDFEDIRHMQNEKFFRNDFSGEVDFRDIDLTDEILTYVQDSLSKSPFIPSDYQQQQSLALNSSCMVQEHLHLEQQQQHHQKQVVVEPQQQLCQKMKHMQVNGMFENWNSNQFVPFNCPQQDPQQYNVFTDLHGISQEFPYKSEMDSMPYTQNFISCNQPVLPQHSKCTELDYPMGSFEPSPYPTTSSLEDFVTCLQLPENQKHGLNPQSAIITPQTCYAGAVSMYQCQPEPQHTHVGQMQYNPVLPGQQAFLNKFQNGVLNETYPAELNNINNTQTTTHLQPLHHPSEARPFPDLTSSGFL
Source text: In Vitro XRE-Luciferase Reporter Assay (In Vitro Assay 1, 2, 3) AhR activation leads the induction of target gene expression such as CYP1A1 and CYPIB1 by AhR binding to AhR-responsive DNA elements also known as xenobiotics responsive elements (XREs). The assay for measuring AhR activity herein is the luciferase assay using cell lines transfected with luciferase reporter plasmid containing XREs at the upstream of the reporter gene. Cells transfected with XRE-luciferase reporter (XRE-Luc), plasmid drive luciferase activity reflecting activation and inhibition of AhR in the cells. […] Kynurenine (an endogenous AhR agonist), was used to stimulate cells to test antagonistic properties of the compounds. The half-maximal inhibitory concentration (IC50), or half-maximal effective concentration (EC50), value was calculated using nonlinear regression (four parameters), with Prism8.0 software (GraphPad).
In Vitro Assay 1: Antagonism in Human Cell Line
HepG2 (human hepatoma cell line) cell line with a XRE-luciferase reporter either transiently or stably (Invivogen) were plated in complete medium and incubated at 37° C. in a CO2 incubator. After 24 hours, cells were treated with kynurenine (50* or 200 μM) alone (negative control) or with test compounds for 6 hours. Luciferase activity was measured with a commercial kit such as the Promega Luciferase kit or Invivogen Luciferase kit. Relative luciferase activity (Firefly/Nano-Luc) was used to calculate IC50 values. […] (IC50 values are grouped as A, B, C and D, whereby A: IC50<0.01 μM; B: 0.01<IC50<0.1 μM; C: 0.1<IC50<1.0 μM; D: IC50>1.0 μM)

SMILES | IC50 [nM]
O[C@@H]1CCCC[C@H]1Nc1cc(-c2ccc(Cl)cc2)nc(-c2cccnc2)n1 (relative stereo) [Example 35, trans-2-((6-(4-chlorophenyl)-2-(pyridin-3-yl)pyrimidin-4-yl)amino)cyclohexan-1-ol] | > 1000
O[C@@H]1CCC[C@H]1Nc1cc(-c2ccc(Cl)cc2)nc(-c2cccnc2)n1 (relative stereo) [Example 68, trans-2-((6-(4-chlorophenyl)-2-(pyridin-3-yl)pyrimidin-4-yl)amino)cyclopentan-1-ol] | 10 to 100
C[C@@H]1CN(c2cc(-c3ccc(Cl)cc3)nc(-c3cccnc3)n2)[C@@H](C)CN1 (relative stereo) [Example 103, Trans-4-(4-chlorophenyl)-6-(2,5-dimethylpiperazin-1-yl)-2-(pyridin-3-yl)pyrimidine] | > 1000
Clc1ccc(-c2cc(N[C@@H]3COC[C@H]3N3CCCC3)nc(-c3cccnc3)n2)cc1 (relative stereo) [Example 201, Trans-6-(4-chlorophenyl)-2-(pyridin-3-yl)-N-(4-(pyrrolidin-1-yl)tetrahydrofuran-3-yl)pyrimidin-4-amine] | > 1000
CC(C)N1C[C@@H](O)[C@H](Nc2cc(-c3ccc(Cl)cc3)nc(-c3cccnc3)n2)C1 (relative stereo) [Example 209, Trans-4-((6-(4-chlorophenyl)-2-(pyridin-3-yl)pyrimidin-4-yl)amino)-1-isopropylpyrrolidin-3-ol] | > 1000
C[C@@H](CO)Nc1cc(-c2ccc(Cl)cc2)nc(-c2cccnc2)n1 [Example 2, (S)-2-((6-(4-chlorophenyl)-2-(pyridin-3-yl)pyrimidin-4-yl)amino)propan-1-ol] | 100 to 1000
C[C@@H](CO)Nc1nc(-c2ccc(Cl)cc2)cc(-c2cccnc2)n1 [Example 3, (S)-2-((4-(4-chlorophenyl)-6-(pyridin-3-yl)pyrimidin-2-yl)amino)propan-1-ol] | 100 to 1000
CC(C)(CO)Nc1cc(-c2ccc(Cl)cc2)nc(-c2cccnc2)n1 [Example 4, 2-((6-(4-chlorophenyl)-2-(pyridin-3-yl)pyrimidin-4-yl)amino)-2-methylpropan-1-ol] | 100 to 1000
CC(C)(CO)Nc1nc(-c2ccc(Cl)cc2)cc(-c2cccnc2)n1 [Example 5, 2-((4-(4-chlorophenyl)-6-(pyridin-3-yl)pyrimidin-2-yl)amino)-2-methylpropan-1-ol] | > 1000
C[C@H](CO)Nc1cc(-c2ccc(Cl)cc2)nc(-c2cccnc2)n1 [Example 11, (R)-2-((6-(4-chlorophenyl)-2-(pyridin-3-yl)pyrimidin-4-yl)amino)propan-1-ol] | 10 to 100
CC(C)C(CO)Nc1cc(-c2ccc(Cl)cc2)nc(-c2cccnc2)n1 (stereo not shown) [Example 12, 2-((6-(4-chlorophenyl)-2-(pyridin-3-yl)pyrimidin-4-yl)amino)-3-methylbutan-1-ol] | 100 to 1000
CC(C)[C@@H](CO)Nc1cc(-c2ccc(Cl)cc2)nc(-c2cccnc2)n1 [Example 13, (S)-2-((6-(4-chlorophenyl)-2-(pyridin-3-yl)pyrimidin-4-yl)amino)-3-methylbutan-1-ol] | > 1000
CC(C)[C@H](CO)Nc1cc(-c2ccc(Cl)cc2)nc(-c2cccnc2)n1 [Example 14, (R)-2-((6-(4-chlorophenyl)-2-(pyridin-3-yl)pyrimidin-4-yl)amino)-3-methylbutan-1-ol] | > 1000
CCC(CO)Nc1cc(-c2ccc(Cl)cc2)nc(-c2cccnc2)n1 (stereo not shown) [Example 15, 2-((6-(4-chlorophenyl)-2-(pyridin-3-yl)pyrimidin-4-yl)amino)butan-1-ol] | > 1000
OCC(CO)Nc1cc(-c2ccc(Cl)cc2)nc(-c2cccnc2)n1 [Example 16, 2-((6-(4-chlorophenyl)-2-(pyridin-3-yl)pyrimidin-4-yl)amino)propane-1,3-diol] | > 1000
Clc1ccc(-c2cc(NCC3CCOCC3)nc(-c3cccnc3)n2)cc1 [Example 19, 6-(4-chlorophenyl)-2-(pyridin-3-yl)-N-((tetrahydro-2H-pyran-4-yl)methyl)pyrimidin-4-amine] | 100 to 1000
CN(C)CCCNc1cc(-c2ccc(Cl)cc2)nc(-c2cccnc2)n1 [Example 20, N^1-(6-(4-chlorophenyl)-2-(pyridin-3-yl)pyrimidin-4-yl)-N^3,N^3-dimethylpropane-1,3-diamine] | > 1000
Clc1ccc(-c2cc(NC3CCCC3)nc(-c3cccnc3)n2)cc1 [Example 26, 6-(4-chlorophenyl)-N-cyclopentyl-2-(pyridin-3-yl)pyrimidin-4-amine] | > 1000
CC(C)(C)Nc1cc(-c2ccc(Cl)cc2)nc(-c2cccnc2)n1 [Example 28, N-(tert-butyl)-6-(4-chlorophenyl)-2-(pyridin-3-yl)pyrimidin-4-amine] | > 1000
O[C@@H]1CCC[C@H]1Nc1cc(-c2ccc(Cl)cc2)nc(-c2cccnc2)n1 [Example 29, (1R,2R)-2-((6-(4-chlorophenyl)-2-(pyridin-3-yl)pyrimidin-4-yl)amino)cyclopentan-1-ol] | 10 to 100
O[C@H]1CCC[C@H]1Nc1cc(-c2ccc(Cl)cc2)nc(-c2cccnc2)n1 [Example 30, (1S,2R)-2-((6-(4-chlorophenyl)-2-(pyridin-3-yl)pyrimidin-4-yl)amino)cyclopentan-1-ol] | 10 to 100
O[C@H]1CC[C@H](Nc2cc(-c3ccc(Cl)cc3)nc(-c3cccnc3)n2)CC1 [Example 34, trans-4-((6-(4-chlorophenyl)-2-(pyridin-3-yl)pyrimidin-4-yl)amino)cyclohexan-1-ol] | 10 to 100

Continued, values first:

IC50 [nM] | SMILES
100 to 1000 | OCCNc1cc(-c2ccc(Cl)cc2)nc(-c2cccnc2)n1 [Example 6, 2-((6-(4-chlorophenyl)-2-(pyridin-3-yl)pyrimidin-4-yl)amino)ethan-1-ol]
> 1000 | OCCCNc1cc(-c2ccc(Cl)cc2)nc(-c2cccnc2)n1 [Example 7, 3-((6-(4-chlorophenyl)-2-(pyridin-3-yl)pyrimidin-4-yl)amino)propan-1-ol]
100 to 1000 | C[C@H](O)CNc1cc(-c2ccc(Cl)cc2)nc(-c2cccnc2)n1 [Example 8, (S)-1-((6-(4-chlorophenyl)-2-(pyridin-3-yl)pyrimidin-4-yl)amino)propan-2-ol]
100 to 1000 | C[C@@H](O)CNc1cc(-c2ccc(Cl)cc2)nc(-c2cccnc2)n1 [Example 9, (R)-1-((6-(4-chlorophenyl)-2-(pyridin-3-yl)pyrimidin-4-yl)amino)propan-2-ol]
100 to 1000 | OCC(O)CNc1cc(-c2ccc(Cl)cc2)nc(-c2cccnc2)n1 (stereo not shown) [Example 10, 3-((6-(4-chlorophenyl)-2-(pyridin-3-yl)pyrimidin-4-yl)amino)propane-1,2-diol]
> 1000 | O[C@@H](CNc1cc(-c2ccc(Cl)cc2)nc(-c2cccnc2)n1)c1ccccc1 [Example 17, (R)-2-((6-(4-chlorophenyl)-2-(pyridin-3-yl)pyrimidin-4-yl)amino)-1-phenylethan-1-ol]
> 1000 | O[C@H](CNc1cc(-c2ccc(Cl)cc2)nc(-c2cccnc2)n1)c1ccccc1 [Example 18, (S)-2-((6-(4-chlorophenyl)-2-(pyridin-3-yl)pyrimidin-4-yl)amino)-1-phenylethan-1-ol]
100 to 1000 | CCNc1cc(-c2ccc(Cl)cc2)nc(-c2cccnc2)n1 [Example 21, 6-(4-chlorophenyl)-N-ethyl-2-(pyridin-3-yl)pyrimidin-4-amine]
100 to 1000 | CCCNc1cc(-c2ccc(Cl)cc2)nc(-c2cccnc2)n1 [Example 22, 6-(4-chlorophenyl)-N-propyl-2-(pyridin-3-yl)pyrimidin-4-amine]
> 1000 | CCCCNc1cc(-c2ccc(Cl)cc2)nc(-c2cccnc2)n1 [Example 23, N-butyl-6-(4-chlorophenyl)-2-(pyridin-3-yl)pyrimidin-4-amine]
100 to 1000 | CCC(O)CNc1cc(-c2ccc(Cl)cc2)nc(-c2cccnc2)n1 (stereo not shown) [Example 24, 1-((6-(4-chlorophenyl)-2-(pyridin-3-yl)pyrimidin-4-yl)amino)butan-2-ol]
> 1000 | Clc1ccc(-c2cc(NCC3CC3)nc(-c3cccnc3)n2)cc1 [Example 25, 6-(4-chlorophenyl)-N-(cyclopropylmethyl)-2-(pyridin-3-yl)pyrimidin-4-amine]
100 to 1000 | Clc1ccc(-c2cc(NCc3ccccn3)nc(-c3cccnc3)n2)cc1 [Example 31, 6-(4-chlorophenyl)-N-(pyridin-2-ylmethyl)-2-(pyridin-3-yl)pyrimidin-4-amine]
100 to 1000 | Clc1ccc(-c2cc(NCc3cccnc3)nc(-c3cccnc3)n2)cc1 [Example 32, 6-(4-chlorophenyl)-2-(pyridin-3-yl)-N-(pyridin-3-ylmethyl)pyrimidin-4-amine]
100 to 1000 | Clc1ccc(-c2cc(NCc3ccncc3)nc(-c3cccnc3)n2)cc1 [Example 33, 6-(4-chlorophenyl)-2-(pyridin-3-yl)-N-(pyridin-4-ylmethyl)pyrimidin-4-amine]
